Test results: patent US20230017045A1, “PYRIDINE AND PYRIMIDINE CARBOXYLATE HERBICIDES AND METHODS OF USE THEREOF” (Dow AgroSciences LLC, priority 2017, published 2023)

Tested on: test plant species
Assay: Post-emergent herbicidal activity test (greenhouse, foliar spray, visual growth reduction)
Assay type: in vivo
Details: post-emergence, 336 h, ALOMY: blackgrass (Alopecurus myosuroides), 140 g ai/ha, 14 days after application, read-out: Visual Growth Reduction (%) 14 Days After Application, ALOMY
Summary of the method: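 Greenhouse plants at first–second true leaf stage sprayed overhead at 187 L/ha with compound in acetone/water/isopropanol/DMSO/crop oil/X-77 carrier; controls received solvent blank. Injury rated visually after 14 d on a 0–100% scale versus untreated and control plants, converted to growth reduction.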

Structure (SMILES) | pest or weed control at 140 g/ha [%]
COC(=O)c1nc(-c2ccc(C#N)cc2)c(F)cc1Cl [F168, Methyl 3-chloro-6-(4-cyanophenyl)-5-fluoropicolinate] | 0 to 29
COC(=O)c1nc(-c2ccc(C(F)(F)F)nc2)ccc1Cl [F114, Methyl 5-chloro-6′-(trifluoromethyl)-[2,3′-bipyridine]-6-carboxylate] | 0 to 29

Same assay, conditions: post-emergence, 336 h, AMARE: redroot pigweed (Amaranthus retroflexus), 140 g ai/ha, 14 days after application, read-out: Visual Growth Reduction (%) 14 Days After Application, AMARE

Structure (SMILES) | pest or weed control at 140 g/ha [%]
COC(=O)c1nc(-c2ccc(C#N)cc2)c(F)cc1Cl [F168, Methyl 3-chloro-6-(4-cyanophenyl)-5-fluoropicolinate] | 30 to 44
COC(=O)c1nc(-c2ccc(C(F)(F)F)nc2)ccc1Cl [F114, Methyl 5-chloro-6′-(trifluoromethyl)-[2,3′-bipyridine]-6-carboxylate] | 0 to 29

Same assay, conditions: post-emergence, 336 h, AVEFA: wild oat (Avena fatua), 140 g ai/ha, 14 days after application, read-out: Visual Growth Reduction (%) 14 Days After Application, AVEFA

Structure (SMILES) | pest or weed control at 140 g/ha [%]
COC(=O)c1nc(-c2ccc(C#N)cc2)c(F)cc1Cl [F168, Methyl 3-chloro-6-(4-cyanophenyl)-5-fluoropicolinate] | 0 to 29
COC(=O)c1nc(-c2ccc(C(F)(F)F)nc2)ccc1Cl [F114, Methyl 5-chloro-6′-(trifluoromethyl)-[2,3′-bipyridine]-6-carboxylate] | 0 to 29

Same assay, conditions: post-emergence, 336 h, CHEAL: lambsquarters (Chenopodium album), 140 g ai/ha, 14 days after application, read-out: Visual Growth Reduction (%) 14 Days After Application, CHEAL

Structure (SMILES) | pest or weed control at 140 g/ha [%]
COC(=O)c1nc(-c2ccc(C#N)cc2)c(F)cc1Cl [F168, Methyl 3-chloro-6-(4-cyanophenyl)-5-fluoropicolinate] | 45 to 59
COC(=O)c1nc(-c2ccc(C(F)(F)F)nc2)ccc1Cl [F114, Methyl 5-chloro-6′-(trifluoromethyl)-[2,3′-bipyridine]-6-carboxylate] | 0 to 29

Same assay, conditions: post-emergence, 336 h, CIRAR: canada thistle (Cirsium arvense), 140 g ai/ha, 14 days after application, read-out: Visual Growth Reduction (%) 14 Days After Application, CIRAR

Structure (SMILES) | pest or weed control at 140 g/ha [%]
COC(=O)c1nc(-c2ccc(C#N)cc2)c(F)cc1Cl [F168, Methyl 3-chloro-6-(4-cyanophenyl)-5-fluoropicolinate] | 0 to 29
COC(=O)c1nc(-c2ccc(C(F)(F)F)nc2)ccc1Cl [F114, Methyl 5-chloro-6′-(trifluoromethyl)-[2,3′-bipyridine]-6-carboxylate] | 0 to 29

Same assay, conditions: post-emergence, 336 h, CYPES: yellow nutsedge (Cyperus esculentus), 140 g ai/ha, 14 days after application, read-out: Visual Growth Reduction (%) 14 Days After Application, CYPES

Structure (SMILES) | pest or weed control at 140 g/ha [%]
COC(=O)c1nc(-c2ccc(C#N)cc2)c(F)cc1Cl [F168, Methyl 3-chloro-6-(4-cyanophenyl)-5-fluoropicolinate] | 0 to 29
COC(=O)c1nc(-c2ccc(C(F)(F)F)nc2)ccc1Cl [F114, Methyl 5-chloro-6′-(trifluoromethyl)-[2,3′-bipyridine]-6-carboxylate] | 0 to 29

Same assay, conditions: post-emergence, 336 h, DIGSA: crabgrass (Digitaria sanguinalis), 140 g ai/ha, 14 days after application, read-out: Visual Growth Reduction (%) 14 Days After Application, DIGSA

Structure (SMILES) | pest or weed control at 140 g/ha [%]
COC(=O)c1nc(-c2ccc(C#N)cc2)c(F)cc1Cl [F168, Methyl 3-chloro-6-(4-cyanophenyl)-5-fluoropicolinate] | 60 to 74
COC(=O)c1nc(-c2ccc(C(F)(F)F)nc2)ccc1Cl [F114, Methyl 5-chloro-6′-(trifluoromethyl)-[2,3′-bipyridine]-6-carboxylate] | 0 to 29

Same assay, conditions: post-emergence, 336 h, ECHCG: barnyardgrass (Echinochloa crus-galli), 140 g ai/ha, 14 days after application, read-out: Visual Growth Reduction (%) 14 Days After Application, ECHCG

Structure (SMILES) | pest or weed control at 140 g/ha [%]
COC(=O)c1nc(-c2ccc(C#N)cc2)c(F)cc1Cl [F168, Methyl 3-chloro-6-(4-cyanophenyl)-5-fluoropicolinate] | 30 to 44
COC(=O)c1nc(-c2ccc(C(F)(F)F)nc2)ccc1Cl [F114, Methyl 5-chloro-6′-(trifluoromethyl)-[2,3′-bipyridine]-6-carboxylate] | 0 to 29

Same assay, conditions: post-emergence, 336 h, IPOHE: ivy-leaf morning glory (Ipomoea hederacea), 140 g ai/ha, 14 days after application, read-out: Visual Growth Reduction (%) 14 Days After Application, IPOHE

Structure (SMILES) | pest or weed control at 140 g/ha [%]
COC(=O)c1nc(-c2ccc(C#N)cc2)c(F)cc1Cl [F168, Methyl 3-chloro-6-(4-cyanophenyl)-5-fluoropicolinate] | 60 to 74
COC(=O)c1nc(-c2ccc(C(F)(F)F)nc2)ccc1Cl [F114, Methyl 5-chloro-6′-(trifluoromethyl)-[2,3′-bipyridine]-6-carboxylate] | 30 to 44

Same assay, conditions: post-emergence, 336 h, KCHSC: kochia (Bassia scoparia), 140 g ai/ha, 14 days after application, read-out: Visual Growth Reduction (%) 14 Days After Application, KCHSC

Structure (SMILES) | pest or weed control at 140 g/ha [%]
COC(=O)c1nc(-c2ccc(C#N)cc2)c(F)cc1Cl [F168, Methyl 3-chloro-6-(4-cyanophenyl)-5-fluoropicolinate] | 0 to 29
COC(=O)c1nc(-c2ccc(C(F)(F)F)nc2)ccc1Cl [F114, Methyl 5-chloro-6′-(trifluoromethyl)-[2,3′-bipyridine]-6-carboxylate] | 0 to 29

Same assay, conditions: post-emergence, 336 h, ORYSA: rice (Oryza sativa), 140 g ai/ha, 14 days after application, read-out: Visual Growth Reduction (%) 14 Days After Application, ORYSA

Structure (SMILES) | pest or weed control at 140 g/ha [%]
COC(=O)c1nc(-c2ccc(C#N)cc2)c(F)cc1Cl [F168, Methyl 3-chloro-6-(4-cyanophenyl)-5-fluoropicolinate] | 0 to 29
COC(=O)c1nc(-c2ccc(C(F)(F)F)nc2)ccc1Cl [F114, Methyl 5-chloro-6′-(trifluoromethyl)-[2,3′-bipyridine]-6-carboxylate] | 0 to 29

Same assay, conditions: post-emergence, 336 h, SETFA: giant foxtail (Setaria faberi), 140 g ai/ha, 14 days after application, read-out: Visual Growth Reduction (%) 14 Days After Application, SETFA

Structure (SMILES) | pest or weed control at 140 g/ha [%]
COC(=O)c1nc(-c2ccc(C#N)cc2)c(F)cc1Cl [F168, Methyl 3-chloro-6-(4-cyanophenyl)-5-fluoropicolinate] | 30 to 44
COC(=O)c1nc(-c2ccc(C(F)(F)F)nc2)ccc1Cl [F114, Methyl 5-chloro-6′-(trifluoromethyl)-[2,3′-bipyridine]-6-carboxylate] | 0 to 29

Same assay, conditions: post-emergence, 336 h, SORVU: grain sorghum (Sorghum vulgare), 140 g ai/ha, 14 days after application, read-out: Visual Growth Reduction (%) 14 Days After Application, SORVU

Structure (SMILES) | pest or weed control at 140 g/ha [%]
COC(=O)c1nc(-c2ccc(C#N)cc2)c(F)cc1Cl [F168, Methyl 3-chloro-6-(4-cyanophenyl)-5-fluoropicolinate] | 30 to 44
COC(=O)c1nc(-c2ccc(C(F)(F)F)nc2)ccc1Cl [F114, Methyl 5-chloro-6′-(trifluoromethyl)-[2,3′-bipyridine]-6-carboxylate] | 0 to 29

Same assay, conditions: post-emergence, 336 h, STEME: common chickweed (Stellaria media), 140 g ai/ha, 14 days after application, read-out: Visual Growth Reduction (%) 14 Days After Application, STEME

Structure (SMILES) | pest or weed control at 140 g/ha [%]
COC(=O)c1nc(-c2ccc(C#N)cc2)c(F)cc1Cl [F168, Methyl 3-chloro-6-(4-cyanophenyl)-5-fluoropicolinate] | 0 to 29
COC(=O)c1nc(-c2ccc(C(F)(F)F)nc2)ccc1Cl [F114, Methyl 5-chloro-6′-(trifluoromethyl)-[2,3′-bipyridine]-6-carboxylate] | 0 to 29

Same assay, conditions: post-emergence, 336 h, TRZAS: wheat, spring (Triticum aestivum), 140 g ai/ha, 14 days after application, read-out: Visual Growth Reduction (%) 14 Days After Application, TRZAS

Structure (SMILES) | pest or weed control at 140 g/ha [%]
COC(=O)c1nc(-c2ccc(C#N)cc2)c(F)cc1Cl [F168, Methyl 3-chloro-6-(4-cyanophenyl)-5-fluoropicolinate] | 0 to 29
COC(=O)c1nc(-c2ccc(C(F)(F)F)nc2)ccc1Cl [F114, Methyl 5-chloro-6′-(trifluoromethyl)-[2,3′-bipyridine]-6-carboxylate] | 0 to 29
